The target of assay [1] is PKC purified from the rat brain. As to the kind of experiment: PKC binding assay. To be noted: for Ki: competitive inhibition of [3H]-PDBu binding, read-out: PKC Binding constant. The method, then:
Filters (Whatman GF-B, 21 mm dia.) are soaked for 1 hour in a solution containing deionized water (97 mL), and 10% polyethyleneamine (3 mL). An assay buffer solution is prepared by the combining of TRIS (1M, pH 7.4, 1 mL), KCl (1M, 2 μL), CaCl2 (0.1M, 30 μL), bovine serum albumin (40 mg), and diluting to 20 mL with deionized water and stored on ice. Phosphatidyl serine vesicles are prepared by the addition of phosphatidyl serine (10 mg/mL in chloroform, 0.4 mL) to a glass test tube followed by removal of the chloroform under a stream of nitrogen (5 min). To this viscous liquid is added a portion of the prepared assay buffer (4 mL) and the resulting mixture is then transferred to a plastic tube. This tube is then sonicated (Branson Sonifier 250, power=6, 40% duty cycle) four times for 30 sec. with a 30 sec. rest in-between sonications. The resulting solution is stored over ice. PKC is prepared by the addition of cooled assay buffer (10 mL) to PKC (25 mL) purified from the rat brain by the method of Mochly-Rosen et al. (J. Biol. Chem. 1987, 262, 2291) and then stored on ice. Stock solutions of compounds are diluted with absolute ethanol in glass in serial fashion.
Each plastic assay incubation tube is made to contain prepared phosphatidyl serine vesicles (60 μL), prepared PKC solution (200 μL) and analog ([…] plus EtOH (20-0 μL) for a total volume of 20 μL). Lastly, tritiated phorbol dibutryate ([3H]-PDBu) (30 nM, 20 μL) is added to each tube. The assay is carried out using 7-10 analog concentrations, each in triplicate. Non-specific binding is measured in 1-3 tubes by the substitution of phorbol myristate acetate (PMA) (1 mM, 5 μL) and EtOH (15 μL) for the analog/EtOH combination. The tubes are incubated at 37° C. for 90 min. and then put on ice for 5 min. Each tube is then filtered separately through a pre-soaked filter disc. The filter is subsequently rinsed with cold 20 mM TRIS buffer (5 mL) dropwise. The filters are then put in separate scintillation vials and Universol® scintillation fluid is added (3 mL). The filters are immediately counted in a scintillation counter (Beckman LS 6000SC). Counts per minute are averaged among three trials at each concentration. The data is then plotted using a least square fit algorithm with the Macintosh version of Kaleidagraph® (Abelbeck Software) and an IC50 (defined as the concentration of analog required to displace half of the specific PDBu binding to PKC) is calculated. The IC50 then allows determination of the Ki for the analog from the equation: Ki=IC50/(1+[PDBu])/Kd of PDBu).

For another assay, the system named is P388 cell line. As to the kind of experiment: P388 murine lymphocytic leukemia cell assay. The class given is cell-based. To be noted: Mus musculus, P388, 120 h, read-out: P388 Assay ED50. The method, then: Cells from a P388 cell line (CellGate, Inc., Sunnyvale, Calif.) are grown in RPMI 1640 cell medium containing fetal calf serum (10%), L-glutamine, penicillin, streptomycin and are split twice weekly. All compounds are first diluted with DMSO. Later serial dilutions are done with a phosphate buffer solution (HYQ DPBS modified phosphate buffered saline). All dilutions are done in glass vials and the final DMSO concentration is always below 0.5% by volume. Final two-fold dilutions are done in a 96 well plate using cell media so that each well contains 50 μL. All compounds are assayed in quadruplicate over 12 concentrations. Cell concentration is measured using a hemacytometer and the final cell concentration is adjusted to 1×10^4 cells/mL with cell medium. The resulting solution of cells (50 μL) is then added to each well and the plates are incubated for 5 days in a 37° C., 5% CO2, humidified incubator (Sanyo CO2 incubator). MTT solution (3-[4,5-dimethylthiazol-2-yl]-2,5-diphenyltetrazolium bromide, 10 μL) is then added to each well and the plates are re-incubated under identical conditions for 2 h. To each well is then added acidified isopropanol (150 μL of i-PrOH solution containing 0.05 N HCl) and mixed thoroughly. The plates are then scanned at 595 nm and the absorbances are read (Wallac Victor 1420 Multilabel Counter). The resulting data is then analyzed to determine an ED50 value using the Prism software package (GraphPad).

For a further assay, the target named is T1, PKCδ-C1B (Mus musculus, UniProt P28867).
T1 construct: made in house
As to the kind of experiment: PKCδ-C1B assay. It is filed as binding. The method, then:
Phosphatidyl serine vesicles are prepared by the addition of phosphatidyl serine (10 mg/mL in chloroform, 0.4 mL) to a glass test tube followed by removal of the chloroform under a stream of nitrogen (5 min). […] The resulting solution is stored over ice. […] Stock solutions of compounds are diluted with absolute ethanol in glass in serial fashion. […] The tubes are incubated at 37° C. for 90 min. and then put on ice for 5 min. Each tube is then filtered separately through a pre-soaked filter disc. […] The filter is subsequently rinsed with cold 20 mM TRIS buffer (5 mL) dropwise. […] The filters are immediately counted in a scintillation counter (Beckman LS 6000SC). Counts per minute are averaged among three trials at each concentration.

Assay [2] concerns the target PKC purified from rat brain. As to the kind of experiment: Protein kinase C (isozyme mix) assay. The following applies: 37° C., 90 min, read-out: Kd of [H^3]-PDBu. The class given is binding. The method, then:
In one approach, anticancer activity of compounds of the invention can be assessed using the protein kinase C assay detailed in Example 5. In this assay, Ki values are determined for analogues based on competition with radiolabeled phorbol 12,13-dibutyrate for binding to a mixture of PKC isoenzymes. PKC enzymes are implicated in a variety of cellular responses which may be involved in the activity of the bryostatins.
The following procedure was used, based on a modification of a previous procedure described by Tanaka et al. (1986). Filters (Whatman GF-B, 21 mm diam.) are soaked for 1 h in a solution containing deionized water (97 mL), and 10% polyethyleneamine (3 mL). A filtering buffer solution containing TRIS (1M, pH 7.4, 10 mL) and water (490 mL) is prepared and cooled on ice. […] Non-specific binding is measured in 1-3 tubes by the substitution of phorbol myristate acetate (PMA) (1 mM, 5 μL) and EtOH (15 μL) for the analogue/EtOH combination. […] The filters are immediately counted in a scintillation counter (Beckman LS 6000SC). […] The data is then plotted using a least squares fit algorithm with the Macintosh version of Kaleidagraph© (Abelbeck Software) and an IC50 (defined as the concentration of analogue required to displace half of the specific PDBU binding to PKC) is calculated. […]

Data on six compounds can be found in US8735609B2, “Bryostatin analogues, synthetic methods and uses” (The Board of Trustees of the Leland Stanford Junior …, priority 2007, dated 2014).

SMILES strings stand for the structures. Read-outs that look alike come from different tables or passages of the source.

T1 sequence (P28867 231-281 limits assumed): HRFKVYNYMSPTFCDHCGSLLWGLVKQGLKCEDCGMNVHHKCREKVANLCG

Turning to `C=CCC1C[C@H]2CCOCC[C@@H](O)CC(=O)O[C@@H](CO)C[C@@H]3C/C(=C\C(=O)OC)[C@H](OC(=O)CCCCCCC)[C@@](O)(O3)C(C)(C)/C=C/[C@@H](O1)O2` (some centres unmarked) [Formula 20A], the Ki in assay [1] was 2.6 nM. The same measure, in the same setting: the value for `C=CCC1C[C@H]2C[C@H]3CCC[C@@H](C[C@@H](O)CC(=O)O[C@@H](CO)C[C@@H]4C/C(=C\C(=O)OC)[C@H](OC(=O)CCCCCCC)[C@@](O)(O4)C(C)(C)/C=C/[C@@H](O1)O2)O3` (some centres unmarked) [Formula 22A] was 0.67 nM. For the compound `COC(=O)/C=C1\C[C@H]2C[C@H]([C@@H](C)O)OC(=O)C[C@H](O)C[C@@H]3CCC[C@H](C[C@@H]4CCO[C@H](/C=C/C(C)(C)[C@](O)(O2)[C@H]1OC(C)=O)O4)O3` [Formula 702.2], the EC50 in the assay with P388 cell line (5 days incubation, MTT) turned out to be 181 nM. For `CCCCCCC(=O)O[C@H]1/C(=C/C(=O)OC)C[C@H]2C[C@H]([C@@H](C)O)OC(=O)C[C@H](O)C[C@@H]3CCC[C@H](C[C@@H]4CCO[C@H](/C=C/C(C)(C)[C@]1(O)O2)O4)O3` [Formula 702.3], the EC50 in the assay on P388 cell line came out at 38 nM. In addition, on PKCδ-C1B, the Ki is 35 nM. On PKCδ-C1B (Kd value), `CCCC(=O)O[C@@H]1[C@@H](C)[C@@]2(O)[C@@H](C=C(CO)C[C@]3(O)C(=O)C(C)=C[C@@H]23)[C@@H]2C(C)(C)[C@]12OC(=O)CCC` [Phorbol dibutyrate, phorbol 12,13-dibutyrate, reference compound] had a Kd of 1.7 nM. In the case of `CCCC(=O)O[C@@H]1[C@@H](C)[C@@]2(O)[C@@H](C=C(CO)C[C@]3(O)C(=O)C(C)=C[C@@H]23)[C@@H]2C(C)(C)[C@]12OC(=O)CCC` [[3H]—PDBu, tritiated phorbol 12,13-dibutyrate, reference compound], the Kd in assay [2] was found to be 1.55 nM; in assay [1] (read-out: PKC Binding constant (Kd of [3H]-PDBu)) it was 1.17 nM.
